Source: patent publication US20030012780A1, “Anti-inflammatory medicaments” (Karolinska Innovation AB, priority 1998, published 2003)

How the values were obtained:
[1] = tested on: PAF-stimulated PMN locomotion in the rat mesentery; assay: Intravital time lapse videomicroscopy of PMN locomotion in rat mesentery in vivo; conditions: PAF 10^-7 M
Experimental: Intravital time lapse videomicroscopy of PMN locomotion in vivo. PMN locomotion in rat mesenteric tissue was studied through use of intravital time lapse videomicroscopy according to the protocol previously described in detail (Werr et al., supra). In brief, Wistar rats (200-250 g) were anesthetized with equal parts of fluanison/fentanyl (10/0.2 mg/ml; Hypnorm; Janssen-Cilag Ltd., Saunderton, UK) and midazolam (5 mg/ml; Dormicum; Hoffman-La Roche, Basel, Switzerland) diluted 1:1 with sterile water (2 ml/kg i.m.). Body temperature was maintained at 37° C. by a heating pad connected to a rectal thermistor. After laparotomy, a segment of the ileum was exposed on a heated transparent pedestal to allow microscopic observation of the mesenteric microvasculature (Orthoplan microscope equipped with water immersion lens SW×25, NA 0.60; Leitz, Wetzlar, Germany). The microscopic image was televised and recorded on time lapse video (at 1/7 of normal speed). Analysis of leukocyte migration in the mesenteric tissue was made off line and the migration path of individual leukocytes was tracked with a digital image analyzer.
Leukocyte extravasation and migration was induced by soaking the exposed mesentery with 5 ml bicarbonate buffer solution (37° C.) containing PAF at a concentration of 10^−7 M. The tissue was then covered with a transparent plastic film to provide continues chemotactic stimulation by PAF. After 40 min of chemotactic stimulation, when numerous leukocytes had extravasated, time lapse recording of leukocyte migration was undertaken, first for 20 min to assess basal migration rates in response to PAF stimulation, and then for additional 40 min in the presence of PAF together with antibodies or peptides. The antibody concentration in the mixture administered to the tissue was for all antibodies 100 μg/ml. The peptide DGEA was similarly administered at a concentration of 25 mM and SLIDIP/RGDGW at a concentration of 500 μM. Due to dilution of the reagent in fluid covering the tissue these seemingly high doses, ˜10 times the documented effective blocking dose, were chosen in order to reach a sufficient concentration in proximity of the migrating leukocytes in the tissue. […] As previously documented, more than 85% of the migrating cells were neutrophils (Werr et al., supra).

[2] = tested on: fMLP-stimulated human PMN locomotion in collagen (type I) gels; assay: PMN migration in gels of collagen (type I); type: cell-based; conditions: fMLP 10^-7 M; DGEA 5 mM; 30 min at 37° C.
Experimental: PMN migration in gels of collagen (type I) and gelatin. Gels were formed in 24-well culture dishes (250 μl/well) by mixing 8.5 volumes of rat collagen solution or bovine gelatin solution (Sigma) at a concentration of 1.5 mg/ml with 1 volume of ×10 MEM (Life Technologies, Gaithersburg, Md.) and 0.5 volume of 4.4% NaHCO3 and fMLP (final concentration 10^−7 M). Purified human PMN (0.5×106), suspended in 200 μl of MEM containing 10^−9 fMLP were placed on top of the gels and incubated with or without mAb:s or peptides for 30 min at 37° C. The final concentration was for all mAb:s 20 μg/ml, for DGEA 5 mM and for SLIDIP/RGDGW 100 μM. Four to six experiments were run in duplicate gels for each reagent tested and ten randomly chosen microscopic fields (with a defined area of 0.0625 mm) were analyzed in each gel. The migration of PMN into the gel was analyzed with an Leitz Orthoplan microscope equipped with a water immersion lens (Leitz UO×55W, NA 0.80) by focusing down through the gel. The calibrated micrometer scale in the fine focus adjustment was used to determine the migration distance of individual PMN from the upper gel surface. The average migration distance of the three leading cells in each field was calculated and defined as the migration distance of the leading front.

[3] = ten-fold higher concentrations of SLIDIP/RGDGW in some experiments

Substance	effect on PMN migration (in words) [1, 3]	effect on PMN migration (in words) ([1]; topical SLIDIP/RGDGW 500 μM)	inhibition of PMN migration velocity ([1]; topical DGEA 25 mM, p<0.001) [%]	migration distance of the leading front in collagen gels (in words) [2]
ACRGDGWMCG	did not yield different effects	without effect	–	–
DGEA	–	–	70±10	to the level of non-stimulated cells
SLIDIP	did not yield different effects	without effect	–	–
